Like-named read-outs stand apart in the source and are kept apart here.
Assays:
T7 RNA polymerase [1] = target: T1, T7 RNA polymerase (Escherichia phage T7, UniProt P00573); assay: Thermal denaturation of T7 RNA polymerase (T7 Tm) by UV spectrophotometry; type: physicochemical; settings: for ΔTm: T7 RNA polymerase at 0.05 mg/ml, PBS 150 mM pH 7.5, versus control without additive (T7 Tm 48.5° C.), Sorbitol 1M, Sucrose 1M, Lactose 0.35M, Raffmose 0.085M, D-Turanose 0.15M; for denaturation temperature of the enzyme (in words): heating T7 RNA polymerase in the presence of the additive
T1 construct: purchased bioMérieux, Marcy l'Etoile, France
Experimental: T7 RNA polymerase was chosen as model enzyme since it is the most sensitive to thermal denaturation; the T7 Tm without additive is 48.5° C.
A UV spectrophotometry technique is used to measure the T7 Tm values. The change in the absorbance of the protein at λ=280 nm as a function of temperature is measured. When the enzyme is heated, the solution becomes cloudy, and aggregates form which correspond to the denatured form. The Tm corresponds to the temperature for which there is 50% of native form and 50% of denatured form (first derivative of the curve absorbance=f(temperature)).
In a polypropylene flask, 4 ml of 300 mM PBS phosphate buffer (Aldrich P-4417, St Quentin Fallavier, France) are mixed with 12μl of T7 RNA polymerase enzyme (bioMérieux, Marcy l'Etoile, France) at 17 mg/ml, i.e. a final protein concentration of 0.05 mg/ml. 500 μl of T7 RNA polymerase solution at 0.05 mg/ml and 500 μl of a concentrated solution of additives (Aldrich, St Quentin Fallavier, France) or of 300 mM PBS for the control are then placed in a quartz cuvette for UV spectrophotometry. After homogenization, the change in absorbance at λ=280 nm is measured as a function of temperature, between 30 and 65° C. at 1° C./min, in order to determine the T7 Tm as previously described (Cary UV spectrophotometer, Varian, Les Ulis, France).

T7 RNA polymerase [2] = target: T1, T7 RNA polymerase; assay: Thermostability (T1/2) at 46° C. of T7 RNA polymerase activity; type: biochemical; settings: environment specific to NASBA, sorbitol 1.48 M
Experimental: In this example, the values of T1/2 of T7 RNA polymerase are determined in the presence or absence of polyols. A description of the measurement method is given below, as are the various reagents used.
Mix buffers B, C and D according to the following proportions with the following Nuclisens™ HIV-1 2.0 reagents (ref.: 285033, bioMérieux, Marcy l'Etoile, France) (for eight reactions): • 36.08 μl buffer A • 6.32 μl buffer B • 25.36 μl buffer C • 173.6 μl buffer D • eight “Nuclisens™ HIV-1 2.0 accusphere reagent” • 960 μl of “Nuclisens™ HIV-1 2.0 diluent reagent”. […]
• 1. The enzymes to be evaluated are diluted in such a way as to have a volumetric activity of 109 kU/ml. • 2. A volume of 20 μl of the enzyme to be evaluated is diluted in 840 μl of solution W1. • 3. 114 μl of the compound to be evaluated are then added to 193.5 μl of enzymatic mix described in point 2 above. • 4. […] 20 μl of solution S are added to 5 n1 of this preincubated mixture in order to measure the rate of increase in fluorescence between 5 and 10 minutes, associated with the residual activity of the enzyme. • 6. […]

HIV-1 type B transcript [3] = assay: NASBA HIV-1 2.0 amplification test at 46° C., functional screening of thermostabilizing compounds; type: biochemical; settings: 7.5 cps/reaction HIV-1B transcript, lactose 0.21 M, sorbitol 1.2 M, sucrose 0.6 M
Experimental: The FIG. 1 represent the functional screening of thermostabilizing compounds during NASBA amplifications at 46° C. in the presence of 7.5 cps/reaction of HIV-1B transcript (seven replicas per screening), with in:
A set of compounds with thermostabilizing properties or assumed to have such properties was evaluated in a NASBA HIV-1 2.0 amplification test on a Nuclisens EasyQ™ amplification platform (bioMérieux, Marcy l'Etoile, France) according to the supplier's recommendations. 5 cps to 30 cps of an HIV-1 type B transcript were used as target in each reaction in the presence or absence of the compound to be evaluated.
The obtaining of an amplification in the presence of the compound at a temperature of 46° C. makes it possible to validate the compound as compatible and thermostabilizing for the NASBA reaction.

T7 RNA polymerase [4] = target: T1, T7 RNA polymerase; assay: Maximum preincubation temperature preserving T7 RNA polymerase activity (3 min preincubation); type: biochemical; settings: 1.4 M sorbitol
Experimental: FIG. 2 describes the residual activity (%) of T7 RNA polymerase after 3 minutes of preincubation at various temperatures and in the presence of various thermostabilizing compounds.
In this example, the maximum temperature that the T7 RNA polymerase could withstand for a preincubation of 3 minutes in the presence of thermostabilizing compounds is determined.
This step can be likened to a target predenaturation or preincubation phase. The protocol used in this example is similar to that of example 2, with the exception of the fact that the temperatures are variable and that the preincubation time was fixed at 3 minutes.

HIV-1 type B transcript [5] = assay: Sensitivity of NASBA detection at 46° C. without target denaturation phase; type: biochemical; settings: HIV-1 type B transcript at 5 cps/test, no target denaturation phase, N=24
Excerpt: FIG. 4 gives the measurement of the sensitivity (%) obtained in the presence of various thermostabilizing compounds during an HIV-1 type B NASBA amplification at 5 cps/test and without target denaturation phase (N=24).
The objective of this is to simplify the method by virtue of the simultaneous addition of the targets to the enzyme and amplification reagent mixes.
A Nuclisens™ HIV-1 2.0 amplification kit (ref.: 285033, bioMérieux, Marcy l'Etoile, France) was used to carry out the amplification experiments in the presence of trehalose, sucrose or sorbitol at the detection limit with an HIV-1 type B transcript at 5 cps/test. Each amplification is replicated 24 times in order to estimate the sensitivity of the test in the presence of thermostabilizing compounds at 46° C.
The sensitivity is expressed as percentage of positive signals determined by the EasyQ™ analysis system, relative to the total number of replicates.

T7 RNA polymerase [6] = target: T1, T7 RNA polymerase; assay: Residual T7 RNA polymerase activity after preincubation at various temperatures, with or without 0.4 M trehalose; type: biochemical; settings: 15 minutes of preincubation at various temperatures
Experimental: FIG. 3A describes the residual activity of T7 RNA polymerase after 15 minutes of preincubation at various temperatures, with or without 0.4 M trehalose.
(§1) Description of the method for measuring the T7 RNA polymerase, RNAse H and AMV-RT activities for example 5: • 1. The T7 RNA polymerase, RNAse H and AMV-RT enzymes are used at volumetric activities of 109 kU/ml, 1 kU/ml and 25 kU/ml respectively. • 2. The T7 RNA polymerase, RNAse H and AMV-RT enzymes are diluted in the solution W1 of example 3 according to the ratios 1/43, 2/191 and 2/27 respectively, in order to mimic the physicochemical environment of the NASBA reaction. • 3. […] The residual activity of each of the T7 RNA polymerase, RNAse H or AMV-RT activities is then measured by adding 5 μl of enzymatic solution to 20 μl of solution S containing the reagents corresponding to each of the activities measured. […]
(§2) • 6. The residual activity of each mutant is expressed as percentage of the fraction of enzyme having not been preincubated and corresponding to 100% activity according to the following calculation: • ρN=slope obtained between 5 and 10 min for the enzyme not preincubated, • ρT=slope obtained between 5 and 10 min for the enzyme preincubated at various temperatures, with or without the presence of the polyol to be studied, and • percentage relative activity=% (ρT/ρN).

AMV-RT = assay: Residual AMV-RT activity after preincubation at various temperatures, with or without 0.4 M trehalose; type: biochemical; settings: 25 minutes of preincubation at various temperatures
Experimental: FIG. 3C describes the residual activity of AMV-RT after 25 minutes of preincubation at various temperatures, with or without 0.4 M trehalose.
as §1, §2

RNAse H = assay: Residual RNAse H activity after preincubation at various temperatures, with or without 0.4 M trehalose; type: biochemical; settings: 25 minutes of preincubation at various temperatures
Experimental: FIG. 3B describes the residual activity of RNAse H after 25 minutes of preincubation at various temperatures, with or without 0.4 M trehalose.
as §1, §2

[7] = 3 minutes at 48° C., 0.7 M sucrose, 0.4 M trehalose

T1 sequence (P00573 whole entry): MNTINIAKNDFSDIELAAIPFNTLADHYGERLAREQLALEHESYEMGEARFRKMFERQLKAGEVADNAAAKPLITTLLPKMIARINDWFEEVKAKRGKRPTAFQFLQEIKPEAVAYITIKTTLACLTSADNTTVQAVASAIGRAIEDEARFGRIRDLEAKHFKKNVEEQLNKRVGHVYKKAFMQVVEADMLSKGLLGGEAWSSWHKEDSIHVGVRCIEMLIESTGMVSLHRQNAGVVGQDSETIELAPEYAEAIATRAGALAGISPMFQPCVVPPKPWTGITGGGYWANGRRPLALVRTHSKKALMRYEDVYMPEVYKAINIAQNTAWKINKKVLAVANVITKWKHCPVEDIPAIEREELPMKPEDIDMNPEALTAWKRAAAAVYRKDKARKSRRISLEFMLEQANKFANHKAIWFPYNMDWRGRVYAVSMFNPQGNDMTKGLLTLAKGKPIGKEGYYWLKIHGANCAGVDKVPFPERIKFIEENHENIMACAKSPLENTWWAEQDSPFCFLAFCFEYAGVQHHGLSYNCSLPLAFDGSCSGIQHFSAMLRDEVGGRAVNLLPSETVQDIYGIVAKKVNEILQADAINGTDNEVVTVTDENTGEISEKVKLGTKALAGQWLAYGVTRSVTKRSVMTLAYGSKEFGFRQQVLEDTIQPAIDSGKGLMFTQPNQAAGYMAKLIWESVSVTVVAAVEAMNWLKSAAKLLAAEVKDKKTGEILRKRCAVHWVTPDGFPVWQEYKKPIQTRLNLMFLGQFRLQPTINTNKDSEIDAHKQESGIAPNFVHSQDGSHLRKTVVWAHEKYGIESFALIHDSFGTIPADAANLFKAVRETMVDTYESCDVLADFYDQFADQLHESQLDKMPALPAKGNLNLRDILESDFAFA

Row | Structure (SMILES) | thermostabilizing effect on the T7 RNA polymerase activity (in words) (T7 RNA polymerase [2]) | NASBA amplification at 46° C. (positive signals out of seven replicas) (HIV-1 type B transcript [3]) | ΔTm (T7 RNA polymerase [1]; read-out: ΔTm) [°C] | denaturation temperature of the enzyme (in words) (T7 RNA polymerase [1]) | T7 RNA polymerase activity preserved (T7 RNA polymerase [4]; [7]) [%] | also measured
1 | O=C(CO)[C@@H](O[C@H]1O[C@H](CO)[C@@H](O)[C@H](O)[C@H]1O)[C@H](O)[C@H](O)CO [D-Turanose] |  |  |  |  |  | ΔTm (T7 RNA polymerase [1]): −4.4 °C
2 | OC[C@H]1O[C@@H](O[C@H]2[C@H](O)[C@@H](O)C(O)O[C@@H]2CO)[C@H](O)[C@@H](O)[C@H]1O (stereo partly drawn) [Lactose, lactose] | weak thermostabilizing power | at least four positive signals out of seven replicas | 5.5 | very significantly increase the denaturation temperature of the enzyme |  | 
3 | OC[C@H]1O[C@H](OC[C@H]2O[C@H](O[C@]3(CO)O[C@H](CO)[C@@H](O)[C@@H]3O)[C@H](O)[C@@H](O)[C@@H]2O)[C@H](O)[C@@H](O)[C@H]1O [Raffmose, raffinose] |  |  | 0.5 |  |  | 
4 | OC[C@@H](O)[C@@H](O)[C@H](O)[C@@H](O)CO [Sorbitol, sorbitol] | greatest thermostabilizing effect | at least four positive signals out of seven replicas | 0.9 | very significantly increase the denaturation temperature of the enzyme | 100 | T7 RNA polymerase activity preserved (T7 RNA polymerase [4]; 3 minutes at 49° C.): 100%; sensitivity (percentage of positive signals relative to total replicates) (HIV-1 type B transcript [5]): 100%
5 | OC[C@H]1O[C@@](CO)(O[C@H]2O[C@H](CO)[C@@H](O)[C@H](O)[C@H]2O)[C@@H](O)[C@@H]1O [Sucrose, sucrose] |  | at least four positive signals out of seven replicas | 5.8 | very significantly increase the denaturation temperature of the enzyme | 100 | 
6 | OC[C@H]1O[C@H](O[C@H]2O[C@H](CO)[C@@H](O)[C@H](O)[C@H]2O)[C@H](O)[C@@H](O)[C@@H]1O [Trehalose, trehalose] |  |  |  |  | 100 | thermostability of T7 RNA polymerase (in words) (T7 RNA polymerase [6]): makes it possible to render it more thermostable; thermostabilizing effect on AMV-RT activity (in words) (AMV-RT): thermostabilizing effect; thermostabilizing effect on RNAse H activity (in words) (RNAse H): thermostabilizing effect

Source: patent US9464308B2, “Method for transcriptional amplification of nucleic acids combining steps of different temperatures” (priority 2011, dated 2016)
